What all share (assay): growth of human tumour cells (NCI), 48 h
For test [1], the system named is COLO 205.
Test [2] has as its system EKVX.
Test [3] has as its system HT-29.
Test [4] deals with M14.
Test [5] relates to NCI-H460.
For test [6], the system named is NCI-H522.
Test [7] deals with OVCAR-4.
The subject of test [8] is RXF 393.
In test [9] the test system is SF-295.
In test [10] the test system is SK-MEL-2.
The test system of test [11] is SK-MEL-5.
Test [12] relates to SK-OV-3.
For test [13], the system named is SW-620.
Test [14] concerns TK-10.
Test [15] relates to UACC-62.
Test [16] concerns UO-31.
Test [17] deals with Hs-578T.
Test [18] deals with MDA-MB-231.
Test [19] has as its system MDA-MB-435.

Results on 12 molecules are retold here after ChEMBL document CHEMBL1201862, “PubChem BioAssay data set” (2004).

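Compound exposure: 48 hours, 5 concentrations, 96-well plates. The concentration for 50% growth inhibition is given as GI50.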 Active and inactive are the calls of the source. No stated cut-off is given here; in the data, active = GI50 up to about 1.1 µM and inactive = higher.

Consider `CCc1ccccc1NC(=O)/C(=N/O)C(C)=O`, for which the GI50 in test [1], in test [2], in test [3], in test [4], in [5] and in test [6] was > 100 µM (inactive) in each case. Moreover, the GI50 in test [7], in test [8], in test [9], in test [10], in test [11] and in test [12] was > 100 µM (inactive) in each case. The GI50 in test [13], in test [14], in [15] and in test [16] was > 100 µM (inactive) in each case.

For the molecule `COc1cc(CCCC(O)COc2cccc3c2C2(O)CCCCCC32)cc(OC)c1` (stereo unspecified), the GI50 in test [1] was 2.53 µM (inactive); in [2], 16 µM (inactive); in test [3] it was 7.26 µM (inactive); in test [4] it was 17.5 µM (inactive); in test [5], 17.6 µM (inactive); in test [6], 24.9 µM (inactive). Further, the GI50 is 18.2 µM (inactive) in [7]; 24.8 µM (inactive) in test [8]; 16.5 µM (inactive) in test [9]; 20.7 µM (inactive) in test [10]; 7.85 µM (inactive) in test [11]; 23.1 µM (inactive) in test [12]. The GI50 in [13] is 17.2 µM (inactive); in test [14], 14.1 µM (inactive); in test [15], 16.4 µM (inactive); in test [16], 15.4 µM (inactive).

Turning to `CC(=O)OCC1OC(OC2C(COC(C)=O)OC(Sc3ccccc3C)C(OC(C)=O)C2OC(C)=O)C(OC(C)=O)C(OC(C)=O)C1OC(C)=O` (stereo unspecified), the GI50 in [1], in [2], in test [3], in test [4], in [5] and in test [6] was > 100 µM (inactive) in each case. Also, the GI50 in test [7], in [8], in test [9], in test [10], in test [11] and in [12] was > 100 µM (inactive) each time. For the same molecule, the GI50 in [13], in test [14], in test [15] and in [16] was > 100 µM (inactive) in each case.

As for `CC1=CC2CC(C)=C(CC[C@]3(C)CC[C@H]([C@@H](C)C(=O)O)OO3)C(C)(C)C2CC1` (stereo partly specified), the GI50 in test [1] is 0.403 µM (active); in test [2], 1.91 µM (inactive); in test [3], 0.182 µM (active); in [4], 1.31 µM (inactive); in test [5], 0.2 µM (active); in test [6], 0.171 µM (active). Also, the GI50 was 0.442 µM (active) in test [7]; 0.372 µM (active) in test [8]; 1.36 µM (inactive) in test [9]; 1.6 µM (inactive) in [10]; 1.26 µM (inactive) in test [11]; 2.2 µM (inactive) in [12]. Also, the GI50 in test [13] is 0.177 µM (active); in test [14], 1.76 µM (inactive); in test [15] it was 1.49 µM (inactive); in [16], 0.984 µM (active).

With `O=CC1=CCCC2(C1)OCCO2`, the GI50 in [1], in test [2], in [3], in test [4], in test [5] and in test [6] was > 100 µM (inactive) each time. Further, the GI50 in test [7], in test [8], in test [9], in test [10], in [11] and in [12] was > 100 µM (inactive) each time. Besides, the GI50 in test [13], in test [14], in [15] and in test [16] was > 100 µM (inactive) in each case.

Take `O=CC1C(=O)Nc2nc3ccccc3n2C1c1ccccc1` (stereo unspecified): the GI50 in [1] was 11.4 µM (inactive); in [2], 22.5 µM (inactive); in test [3] it was 20.4 µM (inactive); in [17] it was 31.6 µM (inactive); in [4], 16 µM (inactive); in test [18], 15.4 µM (inactive). Also, the GI50 was 17.9 µM (inactive) in test [19]; 29.4 µM (inactive) in test [5]; 12.8 µM (inactive) in [6]; 24.7 µM (inactive) in test [7]; 0.183 µM (active) in [8]; 20.9 µM (inactive) in [9]. The GI50 in [10] is 17.3 µM (inactive); in test [11] it was 14.6 µM (inactive); in test [13], 17.8 µM (inactive); in test [14] it was 28.6 µM (inactive); in test [15] it was 15.7 µM (inactive); in [16] it was 13.7 µM (inactive).

For `Cc1cccc(-c2nnc3s/c(=C\c4ccc5c(c4)OCO5)c(=O)n23)c1`, the GI50 in test [1], in test [2], in test [4], in test [5], in test [6] and in test [7] was > 100 µM (inactive) each time. In addition, the GI50 in [8], in test [9], in test [10], in test [11], in test [12] and in test [13] was > 100 µM (inactive) in each case. Also, the GI50 in test [14], in test [15] and in test [16] was > 100 µM (inactive) in each case.

As for `Cc1ccc(SCC(OCn2cnc3c(N)ncnc32)[C@H](C)F)cc1` (stereo partly specified), the GI50 in test [1], in test [3], in test [17], in test [4], in test [18] and in test [19] was > 100 µM (inactive) in each case. For the same molecule, the GI50 in test [5] was > 100 µM (inactive); in test [6], > 100 µM (inactive); in test [7], > 100 µM (inactive); in [9], > 100 µM (inactive); in test [10], > 100 µM (inactive); in test [11] it was 41.4 µM (inactive). In addition, the GI50 in test [12], in test [13], in test [14], in test [15] and in test [16] was > 100 µM (inactive) each time.

Regarding `COc1cccc2nc3c(C(=O)NCCN(C)C)cccc3nc12`, the GI50 in [1] is 5.2 µM (inactive); in [2], 12.6 µM (inactive); in test [3], 4.63 µM (inactive); in [4] it was 13.4 µM (inactive); in test [5] it was 3.78 µM (inactive); in test [6], 11.9 µM (inactive). The GI50 in [7] is 8.77 µM (inactive); in test [8] it was 11.6 µM (inactive); in test [9], 10.1 µM (inactive); in test [10], 8.73 µM (inactive); in test [11], 11.8 µM (inactive); in test [12] it was 25.1 µM (inactive). The GI50 in test [13] is 5.42 µM (inactive); in test [14], 11 µM (inactive); in test [15] it was 12.6 µM (inactive); in test [16] it was 12.2 µM (inactive).

Turning to `O=C1CC(NCc2ccccc2)c2c(Cl)sc(Cl)c21` (stereo unspecified), the GI50 in test [1] was 21.6 µM (inactive); in test [2], 37.5 µM (inactive); in test [3], 28.2 µM (inactive); in test [17] it was 41.8 µM (inactive); in test [4], 21.8 µM (inactive); in [18], 27.1 µM (inactive). Further, the GI50 in test [19] is 24.7 µM (inactive); in test [5] it was > 61.4 µM (inactive); in test [6], 6.05 µM (inactive); in test [7], 28.4 µM (inactive); in test [9], 38.7 µM (inactive); in test [10], 19.5 µM (inactive). Besides, the GI50 in test [11] was 27 µM (inactive); in test [12], > 74 µM (inactive); in test [13] it was 17.7 µM (inactive); in test [14] it was 31.3 µM (inactive); in [15], 5.01 µM (inactive); in test [16], 31.4 µM (inactive).

As to `Nc1c2ccccc2nc2c(C(=O)Nc3ccc(S(N)(=O)=O)cc3)cccc12`, the GI50 in test [1] was > 100 µM (inactive); in [2], > 100 µM (inactive); in test [3], > 100 µM (inactive); in test [4], > 100 µM (inactive); in test [5] it was > 100 µM (inactive); in test [6], 21.8 µM (inactive). Besides, the GI50 was > 100 µM (inactive) in test [7]; > 100 µM (inactive) in test [8]; > 100 µM (inactive) in test [9]; > 100 µM (inactive) in [10]; 86.3 µM (inactive) in [11]; > 100 µM (inactive) in test [12]. Besides, the GI50 in [13] is 66.2 µM (inactive); in test [14], > 100 µM (inactive); in [15] it was 97.5 µM (inactive); in test [16], 46.3 µM (inactive).

Turning to `CC1=C(C(=O)Nc2ccccc2C)C(c2ccccc2)C(C(=O)Nc2ccccc2C)=C(C)N1`, the GI50 in [1] was 24.1 µM (inactive); in test [2], 27.7 µM (inactive); in test [3] it was 34.7 µM (inactive); in [4], 39.4 µM (inactive); in test [5], 33.6 µM (inactive); in [6], 28.6 µM (inactive). Moreover, the GI50 in test [7] is 28.5 µM (inactive); in test [8], 23.9 µM (inactive); in [9], 36.5 µM (inactive); in [10] it was 26.6 µM (inactive); in test [11], 29.2 µM (inactive); in [12] it was > 100 µM (inactive). Also, the GI50 in [13] is 30.5 µM (inactive); in test [14] it was 98.6 µM (inactive); in test [15], 27.1 µM (inactive); in [16], 35.2 µM (inactive).
